Read-outs that look alike come from different tables or passages of the source.
Biological target: T1, rNav1.2 sodium channels (Rattus norvegicus, UniProt P04775)
T1 construct: host or cells: HEK-293
Assay: QPatch automated patch clamp, inhibition of sodium currents evoked by 5 Hz trains at three extracellular pH values
Assay type: cell-based
Settings: for class of pH-dependence pattern (cluster analysis): Ward's method on 18 variables of affinity, reversibility, onset; for τoffset / τonset: concentration (lidocaine 300 μM, memantine 30 μM); for inhibition: 100 μM
How it was run: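 Trains of 5 steps from −90 to −10 mV every 20 s. Apparent affinity, onset/offset time constants (single-exponential fits) and reversibility (w−i)/(c−i) were derived from single-concentration data.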

[1] = pH 6.0, single concentration (lidocaine 300 μM, memantine 30 μM), geometric mean of 5, read-out: apparent affinity
[2] = pH 7.3, single concentration (lidocaine 300 μM, memantine 30 μM), geometric mean of 5, read-out: apparent affinity
[3] = pH 8.6, single concentration (lidocaine 300 μM, memantine 30 μM), geometric mean of 5, read-out: apparent affinity
[4] = pH=6.0, cc 100 mM, read-out: Apparent Affinity
[5] = pH=7.3, cc 100 mM, read-out: Apparent Affinity
[6] = pH=8.6, cc 100 mM, read-out: Apparent Affinity

T1 sequence (P04775 whole entry): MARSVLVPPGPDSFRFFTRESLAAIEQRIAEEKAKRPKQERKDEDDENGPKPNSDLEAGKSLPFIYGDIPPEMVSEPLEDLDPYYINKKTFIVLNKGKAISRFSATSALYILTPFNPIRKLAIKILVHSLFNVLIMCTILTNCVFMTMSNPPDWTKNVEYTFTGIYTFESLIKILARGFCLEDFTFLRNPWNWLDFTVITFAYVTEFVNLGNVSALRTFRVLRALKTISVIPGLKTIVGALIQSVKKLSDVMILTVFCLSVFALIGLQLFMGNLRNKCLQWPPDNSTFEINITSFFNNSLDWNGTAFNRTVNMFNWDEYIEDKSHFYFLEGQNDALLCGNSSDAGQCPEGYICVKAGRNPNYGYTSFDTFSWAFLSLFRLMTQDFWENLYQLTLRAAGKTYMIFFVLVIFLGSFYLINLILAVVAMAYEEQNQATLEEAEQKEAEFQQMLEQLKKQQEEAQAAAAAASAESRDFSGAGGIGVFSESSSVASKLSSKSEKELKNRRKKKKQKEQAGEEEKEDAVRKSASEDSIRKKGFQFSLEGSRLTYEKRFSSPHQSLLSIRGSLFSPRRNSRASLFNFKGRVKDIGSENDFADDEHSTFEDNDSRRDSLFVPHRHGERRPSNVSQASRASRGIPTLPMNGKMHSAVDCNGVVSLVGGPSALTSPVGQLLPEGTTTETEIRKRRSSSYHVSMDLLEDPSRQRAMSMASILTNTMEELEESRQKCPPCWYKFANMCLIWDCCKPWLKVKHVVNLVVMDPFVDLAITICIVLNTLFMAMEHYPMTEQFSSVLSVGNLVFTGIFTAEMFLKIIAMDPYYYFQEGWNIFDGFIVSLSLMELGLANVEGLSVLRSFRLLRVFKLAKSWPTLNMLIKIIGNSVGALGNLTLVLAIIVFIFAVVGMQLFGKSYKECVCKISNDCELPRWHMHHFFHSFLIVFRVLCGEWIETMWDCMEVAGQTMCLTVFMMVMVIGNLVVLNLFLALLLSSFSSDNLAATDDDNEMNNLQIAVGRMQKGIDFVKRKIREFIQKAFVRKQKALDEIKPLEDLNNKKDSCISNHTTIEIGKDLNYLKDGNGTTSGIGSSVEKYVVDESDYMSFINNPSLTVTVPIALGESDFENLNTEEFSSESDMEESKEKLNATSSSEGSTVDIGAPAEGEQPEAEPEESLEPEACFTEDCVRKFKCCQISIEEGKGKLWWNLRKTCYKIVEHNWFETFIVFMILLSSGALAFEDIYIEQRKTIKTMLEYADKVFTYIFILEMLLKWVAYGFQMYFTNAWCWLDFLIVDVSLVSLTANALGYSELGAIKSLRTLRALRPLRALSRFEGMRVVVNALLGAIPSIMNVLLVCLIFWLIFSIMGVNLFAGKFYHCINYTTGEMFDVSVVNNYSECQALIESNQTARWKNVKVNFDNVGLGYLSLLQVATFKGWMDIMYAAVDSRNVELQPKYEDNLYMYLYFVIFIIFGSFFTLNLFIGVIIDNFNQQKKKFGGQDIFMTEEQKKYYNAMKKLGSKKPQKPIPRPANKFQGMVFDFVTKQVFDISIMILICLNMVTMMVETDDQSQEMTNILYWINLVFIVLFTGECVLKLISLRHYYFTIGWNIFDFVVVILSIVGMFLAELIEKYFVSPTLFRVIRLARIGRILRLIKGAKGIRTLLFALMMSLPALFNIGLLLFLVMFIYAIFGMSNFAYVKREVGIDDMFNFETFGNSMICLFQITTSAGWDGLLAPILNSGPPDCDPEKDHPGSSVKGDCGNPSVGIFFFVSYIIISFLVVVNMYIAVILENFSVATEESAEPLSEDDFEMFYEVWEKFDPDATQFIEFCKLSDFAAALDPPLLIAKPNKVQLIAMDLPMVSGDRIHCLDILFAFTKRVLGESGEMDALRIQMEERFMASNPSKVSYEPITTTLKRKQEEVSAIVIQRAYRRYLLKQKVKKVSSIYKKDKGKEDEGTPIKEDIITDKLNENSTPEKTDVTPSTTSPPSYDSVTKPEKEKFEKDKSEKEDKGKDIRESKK

COc1ccccc1OCC(O)CN1CCN(CC(=O)Nc2c(C)cccc2C)CC1 (stereo not shown) [ranolazine] was tested, and the “class of pH-dependence pattern (cluster analysis)” value (“class of pH-dependence pattern” below) was “Class A”, the “Ratio Reversibility” value (pH 6.0/7.3, cc 100 mM) was 0.873 and the “Ratio Tau Offset” value (pH 6.0/7.3, cc 100 mM) was 1.223. The “Ratio Tau Onset” value (pH 6.0/7.3, cc 100 mM) was 0.632, the “log Ratio App Aff” value (pH 6.0/7.3, cc 100 mM) was -0.038 and the “Ratio Reversibility” value (pH 6.0/8.6, cc 100 mM) was 1.042. For the same molecule, the “Ratio Tau Offset” value (pH 6.0/8.6, cc 100 mM) was 1.663, the “Ratio Tau Onset” value (pH 6.0/8.6, cc 100 mM) was 0.667 and the “log Ratio App Aff” value (pH 6.0/8.6, cc 100 mM) was -0.072. The τoffset (pH 6.0) was 29.60 s, the τonset (pH 6.0) was 12.00 s and the Kd [1] was 206 µM. The “Ratio Reversibility” value (pH 7.3/8.6, cc 100 mM) was 1.194, the “Ratio Tau Offset” value (pH 7.3/8.6, cc 100 mM) was 1.360 and the “Ratio Tau Onset” value (pH 7.3/8.6, cc 100 mM) was 1.056. For the same molecule, the “log Ratio App Aff” value (pH 7.3/8.6, cc 100 mM) was -0.034, the τoffset (pH 7.3) was 24.20 s and the τonset (pH 7.3) was 19.00 s. The Kd [2] was 225 µM, the τoffset (pH 8.6) was 17.80 s and the τonset (pH 8.6) was 18.00 s. It also gave a Kd [3] of 243 µM, a Reversibility (pH=6.0, cc 100 mM) of 0.76 and a Kd [4] of 206 µM. The Reversibility (pH=7.3, cc 100 mM) was 0.88, the Kd [5] was 225 µM and the Reversibility (pH=8.6, cc 100 mM) was 0.73. The Kd [6] was 243 µM.

In the case of Nc1nc2ccc(OC(F)(F)F)cc2s1 [riluzole], the “class of pH-dependence pattern” value is reported as “Class G”, the τoffset (pH 6.0) is reported as 23.60 s and the τonset (pH 6.0) is reported as 9.20 s. It also gave a τoffset (pH 7.3) of 21.40 s, a τonset (pH 7.3) of 9.60 s and a τoffset (pH 8.6) of 23.40 s. The τonset (pH 8.6) was 10.40 s, the Reversibility (pH=6.0, cc 30 mM) was 0.45 and the Reversibility (pH=7.3, cc 30 mM) was 0.73. It also gave a Reversibility (pH=8.6, cc 30 mM) of 0.45.

With Cc1nc2sccn2c(=O)c1CCN1CCC(=C(c2ccc(F)cc2)c2ccc(F)cc2)CC1 [ritanserin] the “fold more potent at neutral pH than at pH = 6.0” value (30 μM) was 3.5 fold, the “fold more potent at neutral pH than at pH = 8.6” value (30 μM) was 5.9 fold and the “class of pH-dependence pattern” value was “Class E”. For the same molecule, the “effect of alkalic pH on onset/offset kinetics” value (in words) was “decelerated onset”, the alkalization-induced recovery (neutral-to-alkalic solution exchange, in words) was “prominent alkalization-induced recovery” and the “reversibility at all three pH values” (pH 6.0, 7.3 and 8.6) was “below 0.6”. For the same molecule, the “Ratio Reversibility” value (pH 6.0/7.3, cc 30 mM) was 0.981, the “Ratio Tau Offset” value (pH 6.0/7.3, cc 30 mM) was 0.863 and the “Ratio Tau Onset” value (pH 6.0/7.3, cc 30 mM) was 0.656. For the same molecule, the “log Ratio App Aff” value (pH 6.0/7.3, cc 30 mM) was 0.541, the “Ratio Reversibility” value (pH 6.0/8.6, cc 30 mM) was 4.330 and the “Ratio Tau Offset” value (pH 6.0/8.6, cc 30 mM) was 0.456. The “Ratio Tau Onset” value (pH 6.0/8.6, cc 30 mM) was 0.393, the “log Ratio App Aff” value (pH 6.0/8.6, cc 30 mM) was -0.230 and the τoffset (pH 6.0) was 17.60 s. For the same molecule, the τonset (pH 6.0) was 11.80 s, the Kd [1] was 30.8 µM and the “Ratio Reversibility” value (pH 7.3/8.6, cc 30 mM) was 4.412. The “Ratio Tau Offset” value (pH 7.3/8.6, cc 30 mM) was 0.528, the “Ratio Tau Onset” value (pH 7.3/8.6, cc 30 mM) was 0.600 and the “log Ratio App Aff” value (pH 7.3/8.6, cc 30 mM) was -0.772. For the same molecule, the τoffset (pH 7.3) was 20.40 s, the τonset (pH 7.3) was 18.00 s and the Kd [2] was 8.87 µM. It also gave a τoffset (pH 8.6) of 38.60 s, a τonset (pH 8.6) of 30.00 s and a Kd [3] of 52.4 µM. For the same molecule, the Reversibility (pH=6.0, cc 30 mM) was 0.36, the Kd (pH=6.0, cc 30 mM, read-out: Apparent Affinity) was 30.8 µM and the Reversibility (pH=7.3, cc 30 mM) was 0.37. For the same molecule, the Kd (pH=7.3, cc 30 mM, read-out: Apparent Affinity) was 8.87 µM, the Reversibility (pH=8.6, cc 30 mM) was 0.08 and the Kd (pH=8.6, cc 30 mM, read-out: Apparent Affinity) was 52.4 µM.

C[Si](C)(Cc1ccc(F)cc1)CN1CCCCC1 [silperisone] showed an inhibition (pH 6.0) of 23%, an inhibition (pH 7.3) of 42% and an inhibition (pH 8.6) of 79%. For the same molecule, the “class of pH-dependence pattern” value was “Class F”, the “Ratio Reversibility” value (pH 6.0/7.3, cc 100 mM) was 0.877 and the “Ratio Tau Offset” value (pH 6.0/7.3, cc 100 mM) was 1.240. The “Ratio Tau Onset” value (pH 6.0/7.3, cc 100 mM) was 0.900, the “log Ratio App Aff” value (pH 6.0/7.3, cc 100 mM) was 0.387 and the “Ratio Reversibility” value (pH 6.0/8.6, cc 100 mM) was 1.714. The “Ratio Tau Offset” value (pH 6.0/8.6, cc 100 mM) was 0.894, the “Ratio Tau Onset” value (pH 6.0/8.6, cc 100 mM) was 1.154 and the “log Ratio App Aff” value (pH 6.0/8.6, cc 100 mM) was 1.096. For the same molecule, the τoffset (pH 6.0) was 18.60 s, the τonset (pH 6.0) was 9.00 s and the Kd [1] was 334 µM. For the same molecule, the “Ratio Reversibility” value (pH 7.3/8.6, cc 100 mM) was 1.955, the “Ratio Tau Offset” value (pH 7.3/8.6, cc 100 mM) was 0.721 and the “Ratio Tau Onset” value (pH 7.3/8.6, cc 100 mM) was 1.282. For the same molecule, the “log Ratio App Aff” value (pH 7.3/8.6, cc 100 mM) was 0.709, the τoffset (pH 7.3) was 15.00 s and the τonset (pH 7.3) was 10.00 s. It also gave a Kd [2] of 137 µM, a τoffset (pH 8.6) of 20.80 s and a τonset (pH 8.6) of 7.80 s. For the same molecule, the Kd [3] was 26.8 µM, the Reversibility (pH=6.0, cc 100 mM) was 0.80 and the Kd [4] was 334 µM. It also gave a Reversibility (pH=7.3, cc 100 mM) of 0.92, a Kd [5] of 137 µM and a Reversibility (pH=8.6, cc 100 mM) of 0.47. The Kd [6] was 26.8 µM.

With Cc1ccc(C(=O)C(C)CN2CCCCC2)cc1 (stereo not shown) [tolperisone] the “decrease of recovery at pH = 8.6 as compared to pH = 7.3” value was 1.35 fold, the “class of pH-dependence pattern” value was “Class F” and the “Ratio Reversibility” value (pH 6.0/7.3, cc 100 mM) was 0.699. For the same molecule, the “Ratio Tau Offset” value (pH 6.0/7.3, cc 100 mM) was 1.256, the “Ratio Tau Onset” value (pH 6.0/7.3, cc 100 mM) was 1.028 and the “log Ratio App Aff” value (pH 6.0/7.3, cc 100 mM) was 0.132. For the same molecule, the “Ratio Reversibility” value (pH 6.0/8.6, cc 100 mM) was 0.944, the “Ratio Tau Offset” value (pH 6.0/8.6, cc 100 mM) was 1.286 and the “Ratio Tau Onset” value (pH 6.0/8.6, cc 100 mM) was 1.423. For the same molecule, the “log Ratio App Aff” value (pH 6.0/8.6, cc 100 mM) was 0.542, the τoffset (pH 6.0) was 16.20 s and the τonset (pH 6.0) was 7.40 s. The Kd [1] was 373 µM, the “Ratio Reversibility” value (pH 7.3/8.6, cc 100 mM) was 1.349 and the “Ratio Tau Offset” value (pH 7.3/8.6, cc 100 mM) was 1.024. The “Ratio Tau Onset” value (pH 7.3/8.6, cc 100 mM) was 1.385, the “log Ratio App Aff” value (pH 7.3/8.6, cc 100 mM) was 0.410 and the τoffset (pH 7.3) was 12.90 s. The τonset (pH 7.3) was 7.20 s, the Kd [2] was 275 µM and the τoffset (pH 8.6) was 12.60 s. For the same molecule, the τonset (pH 8.6) was 5.20 s, the Kd [3] was 107 µM and the “KD app, effect of acidic medium” value (pH = 6.0 vs neutral, increased KD app = decreased apparent affinity) was “MEM,MEX,TOL↑”. It also gave a Reversibility (pH=6.0, cc 100 mM) of 0.65, a Kd [4] of 373 µM and a Reversibility (pH=7.3, cc 100 mM) of 0.93. It also gave a Kd [5] of 275 µM, a Reversibility (pH=8.6, cc 100 mM) of 0.69 and a Kd [6] of 107 µM.

COc1ccc(C(CN(C)C)C2(O)CCCCC2)cc1 (stereo not shown) [venlafaxine] gave a Kd (Apparent Affinity, pH=6.0, cc 100 mM) of 810 µM, a Kd (Apparent Affinity, pH=7.3, cc 100 mM) of 539 µM and a Kd (Apparent Affinity, pH=8.6, cc 100 mM) of 174 µM. For the same molecule, the “class of pH-dependence pattern” value was “Class D”, the Kd (apparent affinity, pH 6.0, single concentration (lidocaine 300 μM, memantine 30 μM), geometric mean of 5) was 810 µM and the Kd (apparent affinity, pH 7.3, single concentration (lidocaine 300 μM, memantine 30 μM), geometric mean of 5) was 539 µM. The Kd (apparent affinity, pH 8.6, single concentration (lidocaine 300 μM, memantine 30 μM), geometric mean of 5) was 174 µM, the inhibition at 100 µM (pH 6) was under 25% and the “Ratio Reversibility” value (pH 6.0/7.3, cc 100 mM) was 0.250. The “Ratio Tau Offset” value (pH 6.0/7.3, cc 100 mM) was 1.446, the “Ratio Tau Onset” value (pH 6.0/7.3, cc 100 mM) was 1.639 and the “log Ratio App Aff” value (pH 6.0/7.3, cc 100 mM) was 0.177. The “Ratio Reversibility” value (pH 6.0/8.6, cc 100 mM) was 0.250, the “Ratio Tau Offset” value (pH 6.0/8.6, cc 100 mM) was 1.330 and the “Ratio Tau Onset” value (pH 6.0/8.6, cc 100 mM) was 1.405. The “log Ratio App Aff” value (pH 6.0/8.6, cc 100 mM) was 0.669, the τoffset (pH 6.0) was 13.30 s and the τonset (pH 6.0) was 11.80 s. The inhibition at 100 µM (pH 7.3) was under 25%, the “Ratio Reversibility” value (pH 7.3/8.6, cc 100 mM) was 0.999 and the “Ratio Tau Offset” value (pH 7.3/8.6, cc 100 mM) was 0.920. The “Ratio Tau Onset” value (pH 7.3/8.6, cc 100 mM) was 0.857, the “log Ratio App Aff” value (pH 7.3/8.6, cc 100 mM) was 0.492 and the τoffset (pH 7.3) was 9.20 s. It also gave a τonset (pH 7.3) of 7.20 s, a τoffset (pH 8.6) of 10.00 s and a τonset (pH 8.6) of 8.40 s. For the same molecule, the “effect of acidic pH on recovery” value (pH = 6.0 vs 7.3, in words) was “decreased recovery”, the Reversibility (pH=6.0, cc 100 mM) was 0.18 and the Reversibility (pH=7.3, cc 100 mM) was 0.73. For the same molecule, the Reversibility (pH=8.6, cc 100 mM) was 0.73.
